From patent publication US20150011566A1, “N-PHENYLPIPERAZINE DERIVATIVES THAT ARE ANTAGONISTS OF A1A, A1D ADRENOCEPTORS AND 5-HT1A RECEPTORS FOR THE TREATMENT OF BENIGN PROSTATE HYPERPLASIA, PHARMACEUTICAL COMPOSITIONS CONTAINING THE SAME” (UNIVERSIDADE FEDERAL DO RIO DE JANEIRO-UFRJ, priority 2012, published 2015)
Where two headings read alike, the source gives them in different places.

Experiments:
5-HT1A receptors = molecular target: T1, 5-HT1A receptors (Rattus norvegicus, UniProt P19327); experiment: Binding of [3H]p-MPPF with GTP to 5-HT1A receptors; intrinsic activity (Ki low/Ki high); settings: for Ki: antagonist radioligand [3H] p-MPPF in the presence of GTP, read-out: Ki low; for Ki low/Ki high: estimate of intrinsic activity; for pharmacological classification: from Ki low/Ki high; for Ki value ratios for low and high affinity receptor states: in words
T1 construct: Intrinsic Activity at Native 5-HT1A Receptors; from tissue; host or cells: rat hippocampus membranes
T1 sequence (P19327 1-422): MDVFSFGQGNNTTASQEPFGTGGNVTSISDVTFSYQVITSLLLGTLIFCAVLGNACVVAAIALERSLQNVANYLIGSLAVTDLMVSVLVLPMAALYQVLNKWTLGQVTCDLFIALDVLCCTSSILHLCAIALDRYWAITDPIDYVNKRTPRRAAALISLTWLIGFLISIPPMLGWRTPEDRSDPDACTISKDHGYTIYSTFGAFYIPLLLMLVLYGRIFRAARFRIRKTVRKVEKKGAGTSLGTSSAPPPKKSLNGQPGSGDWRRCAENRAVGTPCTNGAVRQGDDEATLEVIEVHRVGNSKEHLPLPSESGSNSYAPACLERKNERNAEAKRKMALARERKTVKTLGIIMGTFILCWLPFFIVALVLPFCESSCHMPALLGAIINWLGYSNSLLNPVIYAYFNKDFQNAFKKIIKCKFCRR
Procedure: Membrane preparations of rat hippocampus according to previously described by HALL et al (1985) and PEROUTKA (1986) were performed. The homogenization and centrifugation steps were performed identically to that described above for receptors α2A and 5-HT2A receptors.
The binding assays for the 5-HT1A receptors were performed as described previously in the literature and previously standardized in the laboratory through saturation experiments. […] (solvent for dilution of LDT's) for the determination of total binding, or 50 μL non-radioative serotonin at 10 μM to determine the non-specific binding (final volume of 500 μL). Assays were performed in triplicate. […] Assays were performed in triplicate.
After the incubation period, the reaction was stopped by adding 4 ml of ice-cold solution containing 5 mM Tris (pH 7.4), followed by vacuum filtration on glass fiber filter (GMF 3, Filtrak®) previously soaked with solution 0.5% polyethylenoimine. The filters were washed three times with 4 mL of ice-cold solution containing 5 mM Tris (pH 7.4) under vacuum to remove all free radioligand. Then the filters were dried and placed in vials containing 5 ml scintillation fluid (composition: 4% PPO, 0.1% POPOP w/p in toluene). The radioactivity retained on the filters was then determined in a liquid scintillation counter (Packard Tri-Carb 1600 TR). […] For these receptors were also determined the […] and Ki parameters.
The GTP presence displaces the GPCR to a state of low affinity (Lahti et al, 1992). The intrinsic activity of a substance can be estimated using GPCR agonist or antagonist radioligand appropriate to define the affinity of the substance in the state of high and low affinity receptor, respectively.

α2A receptors = molecular target: T2, α2A receptors (Rattus norvegicus, UniProt P22909); experiment: Binding of [3H]RX821002 to α2A receptors (rat cortex membranes)
T2 construct: from tissue; host or cells: rat cortex membranes
T2 sequence (P22909 1-465): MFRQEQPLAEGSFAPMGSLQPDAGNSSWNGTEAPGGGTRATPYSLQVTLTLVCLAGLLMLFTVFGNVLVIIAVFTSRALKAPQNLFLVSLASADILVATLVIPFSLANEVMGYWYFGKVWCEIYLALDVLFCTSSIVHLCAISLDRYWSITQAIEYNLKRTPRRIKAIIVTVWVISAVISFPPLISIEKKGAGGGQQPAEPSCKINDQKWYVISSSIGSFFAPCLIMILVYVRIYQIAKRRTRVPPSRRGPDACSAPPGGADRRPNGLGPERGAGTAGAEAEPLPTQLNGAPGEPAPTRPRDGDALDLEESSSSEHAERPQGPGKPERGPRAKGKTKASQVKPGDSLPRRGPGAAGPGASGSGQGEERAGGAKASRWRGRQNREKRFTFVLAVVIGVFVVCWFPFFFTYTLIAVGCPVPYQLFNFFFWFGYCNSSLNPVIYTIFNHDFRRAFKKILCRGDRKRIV
Procedure: Membrane preparations of rat cortex as described previously in the literature were performed. The organs were homogenized in a Potter with the aid of a motor unit (Fisatom) and Teflon piston in the proportion of 20 parts of 50 mM Tris HCl (pH 7.4 at 4° C.) for one piece of material, three times for 30 seconds each time, at intervals the solution was allowed to stand on ice for 1 minute.
Then it was performed a centrifugation at 900×g for 10 minutes at 4° C. It was obtained a […] which was resuspended in solution cold 50 mM Tris-HCl (pH 7.4) and the same procedure was performed once more. The supernatant was then centrifuged at 48,000×g for 10 minutes at 4° C. yielding a pellet which was resuspended at a ratio of 20 parts of 50 mM Tris HCl (pH 7.4 at 4° C.) for one piece of material, and incubated at 37° C. for 10 minutes in order to remove the endogenous neurotransmitters. Finally, centrifugation two times more at 48,000×g was performed for 10 minutes at 4° C., and then the final pellet was resuspended in a solution of 50 mM Tris-HCl (pH 7.4).
Binding assays for the α2A receptor were performed as described previously in the literature and previously standardized in the laboratory by saturation experiments. […] Incubate for 60 minutes at 30° C., 150 membrane preparation of rat cortex contained 50 μL was suspended in 50 mM Tris-HCl into tubes containing 400 μL intermediate solution ([3H] RX821002 1.25 nM, 50 mM Tris (pH 7.4 at 37° C.) and 50 μL of different concentrations of LDT's (final concentration 10^−7-3×10^−5 M to LDT65-68) or 50 μL of 50 mM Tris-HCl pH 7.4 at 37° C. (solvent for dilution of the LDT's), to determine the total binding or 50 μL nonradioactive bitartrate adrenaline at 100 μM for determining the non-specific bounding (final volume 500 μL). Assays were performed in triplicate.
After the incubation period, the reaction was stopped by adding 4 mL ice cold solution containing 5 mM Tris (pH 7.4), followed by vacuum filtration on glass fiber filter (GMF 3, Filtrak®) previously soaked with solution 0.5% polyethylenoimine. The filters were washed three times with 4 mL of ice-cold solution containing 5 mM Tris (pH 7.4) under vacuum to remove all free radioligand. Then the filters were dried and placed in vials containing 5 ml scintillation fluid (composition: 4% PPO, 0.1% POPOP w/v in toluene). The radioactivity retained on the filters was then determined in a liquid scintillation counter (Packard Tri-Carb 1600 TR). Specific binding of [3H]RX821002 to a2A receptors was defined as the difference between total binding and non-specific binding. To these receptors were determined and IC50 and Ki parameters.

[1] = Table 6, Cheng-Prusoff, read-out: Ki
[2] = Table 12, Cheng-Prusoff, read-out: Ki
[3] = Table 12, read-out: -log IC50 (converted)

Row | Structure (SMILES) | Ki (5-HT1A receptors; Table 9) [nM] | Ki low/Ki high (5-HT1A receptors; Table 9) | log IC50 (M) (α2A receptors; Table 6) | Ki (α2A receptors; [1]) [nM] | IC50 (α2A receptors) [nM] | Ki (α2A receptors) [nM] | pharmacological classification (5-HT1A receptors; Table 13) | other results
1 | CCCCCCCCN1CCN(c2ccccc2OC)CC1 [LDT 68] | 3.1 | 0.34 | −6.01 ± 0.03 | 600 | – | – | – | –
2 | CCCCCCCN1CCN(c2ccccc2OC)CC1 [LDT 67] | 6.7 | 0.37 | −6.10 ± 0.06 | 500 | – | – | – | –
3 | CCCCCN1CCN(c2ccccc2OC)CC1 [LDT 65] | – | 1.18 | – | – | 2510 | 1500 | – | –
4 | CCOc1ccccc1N1CCN(CCc2ccc3c(c2)OCO3)CC1 [LDT 8] | – | – | – | – | – | – | partial antagonist | Ki value ratios for low and high affinity receptor states (5-HT1A receptors): close to the unity; Ki (5-HT1A receptors; Table 13): 0.62 nM; Ki (α2A receptors; [2]): 550 nM; IC50 (α2A receptors; [3]): 603 nM
5 | CCCCCCN1CCN(c2ccccc2OC)CC1 [LDT 66] | 9 | 1.80 | −5.92 ± 0.06 | 800 | – | – | – | –
6 | COc1ccc(CCN2CCN(c3ccccc3OC)CC2)cc1OC [LDT 5] | – | – | – | – | 295 | 240 | antagontist | –
7 | COc1cccc(CCN2CCN(c3ccccc3OC)CC2)c1 [LDT 3] | – | – | – | – | – | – | antagonist | Ki value ratios for low and high affinity receptor states (5-HT1A receptors): close to the unity; Ki (α2A receptors; [2]): 930 nM; IC50 (α2A receptors; [3]): 1100 nM
8 | CCOc1ccccc1N1CCN(CCc2ccc(OC)c(OC)c2)CC1 [LDT 245] | – | – | – | – | 2000 | 160 | – | –
